Source: patent US8546452B2, “S1P3 receptor antagonist” (TOA Eiyo Ltd., priority 2005, dated 2013)
Blank lines part the entries; values can stand above or below the compound they belong to.

Key:
[1] = Time to reach the maximum blood concentration after oral administration; assay type: in vivo; conditions: oral administration (1 mg/kg)
[2] = system: FTY720-induced bradycardia; experiment: Effect on hemodynamic changes (bradycardia) caused by FTY720 in anesthetized rat; assay type: in vivo; conditions: FTY720 1 mg/kg intravenously
Description: Thus, the effects of the compound of the present invention on the FTY720-induced bradycardia were examined.
A rat was anesthetized with pentobarbital (50 mg/kg, intraperitoneal administration), and then catheters for drug administration and blood pressure measurement were inserted into the lower limb vein and the carotid artery, respectively. The blood pressure was measured with a strain pressure amplifier via a pressure transducer. The heart rate was measured with a tachometer by means of the electrocardiographic wave. The FTY720 used was purchased from Cayman Chemical Co.
FTY720 (1 mg/kg) was intravenously administered, and the effects thereof on hemodynamics were investigated by measuring the blood pressure and the heart rate at 0 minute (immediately before administration), and 10, 20 and 30 minutes immediately after the intravenous administration.

[3] = system: isolated heart of rat; experiment: Effect on the coronary blood flow rate in isolated heart of rat (Langendorff perfusion); conditions: S1P 10^−9 M to 10^−7 M in perfusion solution
Description: A male SD rat weighing about 350 g was anesthetized with pentobarbital sodium (50 mg/kg), and heparin (1000 U/kg) was administered through the lower limb vein. The heart was rapidly isolated and connected to a Langendorff perfusion apparatus. […] The temperature of the perfusion solution was set at 37±0.2° C., and gassed with a gas mixture (95% O2 and 5% CO2) such that the oxygen partial pressure was 550 mmHg or more. The coronary perfusion flow rate was measured with an electromagnetic blood flow meter through a probe installed in the circulation pathway. Furthermore, the effects on the heart function were investigated using the left ventricular developed pressure (LVDP), the first derivative of the left ventricular pressure (LV±dp/dt) and the heart rate (HR) as indices. The LVDP was determined by subtracting the left ventricular end diastolic pressure (LVEDP) from the left ventricular systolic pressure (LVSP), which was detected with a latex balloon inserted into the left ventricle, and measured with a pressure strain meter via a pressure transducer. […] Signals measured with the pressure strain meter were conducted to a differential meter and a heart rate meter, to measure the first derivative of the left ventricular pressure (LV±dp/dt) and the heart rate (HR). […]

time to reach the maximum blood concentration [1]: 4 h
Structure (SMILES): CC(C)(C)C(=O)/C(=N/c1ccc(Cl)cc1)NNc1ccc(Cl)cc1 [Compound 33, 1-(4-chlorophenylamino)-1-(4-chlorophenylhydrazono)-3,3-dimethyl-2-butanone]

Structure (SMILES): CCCCCCCCc1ccc(CCC(N)(CO)CO)cc1 [FTY720]
heart rate, effect of FTY720 [2]: reduced the heart rate and induced bradycardia

Structure (SMILES): CCCCCCCCCCCCC/C=C/[C@@H](O)[C@@H](N)COP(=O)(O)O [Compound S1P, sphingosine 1-phosphate]
coronary blood flow rate, effect of S1P [3]: significantly decreased
